Measurements taken from patent US11793823B2, “Compounds and pharmaceutical uses thereof” (SyneuRx International (Taiwan) Corp., priority 2020, dated 2023).
pIC50: −log10 of the molar value. Like-named read-outs stand apart in the source and are kept apart here.

Experiments:
[1] = molecular target: human D-amino acid oxidase (hDAAO) (Homo sapiens (Human), UniProt P14920); assay: In vitro human D-amino acid oxidase (hDAAO) activity, D-Serine/Amplex Red fluorescence; format: biochemical; details: D-Serine substrate, 20 min
Experimental: The hDAAO inhibitory activities were measured by using D-Serine as a substrate to produce H2O2. The produced H2O2 would be oxidized by peroxidase, and the produced free radicals would further react with Amplex Red reagent to emit fluorescence. The intensity of fluorescence at 590 nm would be measured to represent the activity of hDAAO. All compounds were dissolved in DMSO. Each compound was diluted with DMSO in 3-fold serial dilution to create a dose response curve. Each sample was added in triplicate, 1 µL/well, into 96-well black plates. Positive control wells were added with 1 μL of DMSO. Then 49 μL of assay buffer (100 mM Tris-HCl, pH 8.5) containing 1.2 ng/mL hDAAO, 900 nM FAD, 0.2 units/mL HRP, and 100 μM Amplex Red was added to each well of the plate using a multichannel pipette. Next, 50 μL of 100 mM D-Serine in assay buffer was added. The reaction plates were then incubated in the dark at room temperature. The fluorescence readout was detected at 0 and 20 mins by Molecular Device Gemini EM fluorescence reader using the following settings: excitation filter 530 nm, and emission filter 590 nm. The percentage of inhibition values for each well was calculated with the following equation: The percentage of inhibition=(fluorescence sample, 20 min−fluorescence sample, 0 min)/(fluorescence DMSO, 20 min−fluorescence DMSO, 0 min)×100%
The nonlinear curve fitting model in GraphPad Prism was used to calculate IC50 value for each compound.

[2] = molecular target: SARS-CoV-2 3CLPro (Severe acute respiratory syndrome coronavirus 2 (2019-nCoV) (SARS-CoV-2), UniProt P0DTD1); assay: biochemical; details: for pIC50: read-out: IC50; for IC50: read-out: IC50 (μg/mL) (converted)
[3] = system: MK-801 treated mice; assay: Pre-pulse inhibition (PPI) test, MK-801 induced deficit of sensorimotor gating; format: in vivo; details: MK-801 0.3 mg/kg i.p.
Experimental: (§1) C57BL/6J male mice were group housed (3-5 mice per cage) with food and water available ad libitum in polysulfone ventilated cages (Alternative Design, AR, USA) in the animal room of SyneuRx. The colony was maintained on a 12/12-h light/dark cycle at the temperature of 22±2° C. and all behavioral studies were performed during the dark cycle. All animals used in this study were adult mice (at least 2.5 months of age). All animal procedures were performed according to the protocols approved by Institutional Animal Care and Use Committee (IACUC).
(§2) The mice were randomly assigned into five groups for open field test, Group 1: vehicle control, Group 2: MK-801, Group 3: Compound 66 at 10 mg/kg+MK-801, Group 4: Compound 66 at 30 mg/kg+MK-801, Group 5: Compound 66 at 100 mg/kg+MK-801. Mice at Group 2-5 received an acute administration of MK-801 (Sigma-Aldrich USA), a NMDA receptor antagonist, dissolved in normal saline, at 0.2 mg/kg for open field. For pre-pulse inhibition (PPI) test, animal was randomly assigned for four groups, Group 1: vehicle control, Group 2: MK-801, Group 3: Compound 66 at 3 mg/kg+MK-801, Group 4: Compound 66 at 10 mg/kg. Group 2-4 was received 0.3 mg/kg, MK-801. MK-801 was administrated by i.p. injection 20 minutes prior to open field and PPI tests. Test article, compound 66 (dissolved in ddH2O with 65% PEG400 and 10% DMSO), was orally treated 20 minutes prior to the MK-801 administration.
Pre-pulse inhibition, using SR-LAB startle apparatus (San Diego Instruments, San Diego, CA, USA), was used to determine the efficacy of compound 66 on attenuating the MK-801 induced deficit of sensorimotor gating function in mice. Under 65 dB background noise, each session was composed of a 5-minute accumulation period followed by 64 trials in four blocks. The pulse alone (PA) trial was a 40 ms, 120 dB white noise burst. In the prepulse (pp)+pulse trials, a 20 ms white noise prepulse stimuli of 71 dB (pp6), 75 dB (pp10), and 83 dB (pp18) were presented 100 ms before a 40 ms 120 dB pulse. The non-stimulus (NS) trials presented the background noise only. The initial and the last blocks were composed of six PA trials, respectively. Two middle blocks consisted of PA, pp+pulse, and NS trials. These trials were presented pseudo-randomly and separated by intertribal intervals of 15 seconds on average (varying between 10 to 20 s). The percentage of prepulse inhibition was evaluated by the following formula: % PPI=100×[(PA score)−(pp-P score)]/(PA score), where the PA score was the average of the PA value in the middle blocks.
as §2, with “74” for “66”, “field test.” for “field.”
All mice were tested with open field and pre-pulse inhibition tasks. The open field and pre-pulse inhibition tasks were used to evaluate the efficacy of the compound 74 on attenuating the MK-801 induced hyper-locomotion and deficit of sensorimotor gating function in mice, respectively. The apparatus and recording method of open field and pre-pulse inhibition task were as described above in Example 45. […]

[4] = system: MK-801 treated mice; assay: Open field test, MK-801 induced hyper-locomotion; format: in vivo; details: for relief of MK801-induced hyperactivity: MK-801 0.2 mg/kg i.p., open field
Experimental: as §1, §2
The open field task is a common measurement of novelty induced exploratory behavior and general activity in both mice and rats. The objective of this experiment was to evaluate the efficacy of compound 66 on attenuating the MK-801 induced hyper-locomotion. In this study, the mice were placed in a Plexiglas cage (37.5 cm×21.5 cm×18 cm) under 50-65 lux light intensity. Their spontaneous locomotor activities were measured for 60 minutes using the Photobeam Activity System (PAS)-open field (San Diego Instruments, San Diego, CA, USA). The total number of photo beam breaks of each mouse was measured as an index of locomotion activity.
as §2, with “74” for “66”, “field test.” for “field.”
All mice were tested with open field and pre-pulse inhibition tasks. The open field and pre-pulse inhibition tasks were used to evaluate the efficacy of the compound 74 on attenuating the MK-801 induced hyper-locomotion and deficit of sensorimotor gating function in mice, respectively. The apparatus and recording method of open field and pre-pulse inhibition task were as described above in Example 45.
Mice at Group 2-5 received an acute administration of MK-801 (Sigma-Aldrich USA), a NMDA receptor antagonist, dissolved in normal saline, at 0.2 mg/kg for open field test. […] Group […] was received 0.3 mg/kg, MK-801. MK-801 was administrated by i.p. injection 20 minutes prior to open field and PPI tests.
The open field task is a common measurement of novelty induced exploratory behavior and general activity in both mice and rats. […] In this study, the mice were placed in a Plexiglas cage (37.5 cm×21.5 cm×18 cm) under 50-65 lux light intensity. […]

Chain of human D-amino acid oxidase (hDAAO) (P14920 whole entry): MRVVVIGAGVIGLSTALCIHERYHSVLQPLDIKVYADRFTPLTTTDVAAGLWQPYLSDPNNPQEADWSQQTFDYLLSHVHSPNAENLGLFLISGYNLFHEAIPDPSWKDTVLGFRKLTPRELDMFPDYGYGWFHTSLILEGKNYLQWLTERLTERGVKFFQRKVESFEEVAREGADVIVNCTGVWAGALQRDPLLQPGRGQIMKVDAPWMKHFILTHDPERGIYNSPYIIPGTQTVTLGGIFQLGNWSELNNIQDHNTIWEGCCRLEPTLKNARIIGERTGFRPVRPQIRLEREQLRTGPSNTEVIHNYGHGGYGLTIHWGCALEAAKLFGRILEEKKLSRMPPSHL

SMILES: O=C(CC1CCCCC1)Oc1cc(C(=O)Oc2cc(C(=O)Oc3cc(C(=O)Oc4cc(C(=O)Oc5cc(C(=O)O)cc(O)c5O)cc(O)c4O)cc(O)c3O)cc(O)c2O)cc(O)c1O [Compound 80, 3-((3-((3-((3-((3-(2-cyclohexylacetoxy)-4,5-dihydroxybenzoyl)oxy)-4,5-dihydroxybenzoyl)oxy)-4,5-dihydroxybenzoyl)oxy)-4,5-dihydroxybenzoyl)oxy)-4,5-dihydroxybenzoic acid]
- pIC50 [1]: 7.24
- pIC50 ([2]; final DMSO concentration 2%): < 4.20
- IC50 ([2]; final DMSO concentration 2%): > 62.5 µM

SMILES: O=C(OC[C@H]1O[C@H](OC(=O)c2cc(O)c(O)c(OC(=O)c3cc(O)c(O)c(OC(=O)c4cc(O)c(O)c(OC(=O)c5cc(O)c(O)c(O)c5)c4)c3)c2)[C@H](OC(=O)c2cc(O)c(O)c(OC(=O)c3cc(O)c(O)c(OC(=O)c4cc(O)c(O)c(OC(=O)c5cc(O)c(O)c(O)c5)c4)c3)c2)[C@@H]1OC(=O)c1cc(O)c(O)c(OC(=O)c2cc(O)c(O)c(OC(=O)c3cc(O)c(O)c(OC(=O)c4cc(O)c(O)c(O)c4)c3)c2)c1)c1cc(O)c(O)c(OC(=O)c2cc(O)c(O)c(OC(=O)c3cc(O)c(O)c(OC(=O)c4cc(O)c(O)c(O)c4)c3)c2)c1 [Compound 138, (2R,3R,4R,5R)-5-(((3-((3-((3,4-dihydroxy-5-((3,4,5-trihydroxybenzoyl)oxy)benzoyl)oxy)-4,5-dihydroxybenzoyl)oxy)-4,5-dihydroxybenzoyl)oxy)methyl)tetrahydrofuran-2,3,4-triyl tris(3-((3-((3,4-dihydroxy-5-((3,4,5-trihydroxybenzoyl)oxy)benzoyl)oxy)-4,5-dihydroxybenzoyl)oxy)-4,5-dihydroxybenzoate)]
- effect on pre-pulse inhibition vs MK-801 group ([3]; 75 dB and 83 dB pre-pulse, 3 mg/kg oral): relieve PPI deficit
- pIC50 [1]: 8.40
- effect on MK-801 induced hyper-locomotion vs MK-801 group ([4]; 3, 10 and 30 mg/kg oral, dose-dependent): significantly reduced
- relief of MK801-induced hyperactivity ([4]; high dose 30 mg/kg oral): 43%

SMILES: O=C(O)c1cc(O)c(O)c(OC(=O)c2cc(O)c(O)c(OC(=O)c3cc(O)c(O)c(OC(=O)c4cc(O)c(O)c(OC(=O)c5cc(O)c(O)c(OC(=O)c6ccccc6)c5)c4)c3)c2)c1 [Compound 77, 3-((3-((3-((3-((3-(benzoyloxy)-4,5-dihydroxybenzoyl)oxy)-4,5-dihydroxybenzoyl)oxy)-4,5-dihydroxybenzoyl)oxy)-4,5-dihydroxybenzoyl)oxy)-4,5-dihydroxybenzoic acid]
- pIC50 [1]: 7.14
- pIC50 ([2]; final DMSO concentration 0.4%): 5.36
- IC50 ([2]; final DMSO concentration 0.4%): 4.33 µM

SMILES: O=C(Oc1cc(C(=O)Oc2cc(C(=O)Oc3cc(C(=O)O[C@H]4OC[C@@H](OC(=O)c5cc(O)c(O)c(OC(=O)c6cc(O)c(O)c(OC(=O)c7cc(O)c(O)c(OC(=O)c8cc(O)c(O)c(O)c8)c7)c6)c5)[C@H](OC(=O)c5cc(O)c(O)c(OC(=O)c6cc(O)c(O)c(OC(=O)c7cc(O)c(O)c(OC(=O)c8cc(O)c(O)c(O)c8)c7)c6)c5)[C@H]4OC(=O)c4cc(O)c(O)c(OC(=O)c5cc(O)c(O)c(OC(=O)c6cc(O)c(O)c(OC(=O)c7cc(O)c(O)c(O)c7)c6)c5)c4)cc(O)c3O)cc(O)c2O)cc(O)c1O)c1cc(O)c(O)c(O)c1 [Compound 121, (2R,3R,4S,5R)-tetrahydro-2H-pyran-2,3,4,5-tetrayl tetrakis(3-((3-((3,4-dihydroxy-5-((3,4,5-trihydroxybenzoyl)oxy)benzoyl)oxy)-4,5-dihydroxybenzoyl)oxy)-4,5-dihydroxybenzoate)]
- effect on pre-pulse inhibition vs MK-801 group ([3]; 75 and 83 dB pre-pulse, all tested doses 3, 10 and 30 mg/kg oral): higher potency
- pIC50 [1]: 8.60
- effect on MK-801 induced hyper-locomotion vs MK-801 group ([4]; 3 mg/kg and 10 mg/kg oral): marginally lower locomotion activity
- effect on MK-801 induced hyper-locomotion vs MK-801 group ([4]; high dose 30 mg/kg oral): significantly reduced
- relief of MK801-induced hyperactivity ([4]; high dose 30 mg/kg oral): 48%

SMILES: O=C(Oc1ccccc1)c1cc(O)c(O)c(OC(=O)c2cc(O)c(O)c(OC(=O)c3cc(O)c(O)c(OC(=O)c4cc(O)c(O)c(OC(=O)c5cc(O)c(O)c(OC(=O)c6ccccc6)c5)c4)c3)c2)c1 [Compound 85, 5-((5-((5-((2,3-dihydroxy-5-(phenoxycarbonyl)phenoxy)carbonyl)-2,3-dihydroxyphenoxy)carbonyl)-2,3-dihydroxyphenoxy)carbonyl)-2,3-dihydroxyphenyl 3-(benzoyloxy)-4,5-dihydroxybenzoate]
- pIC50 [1]: 7.51
- pIC50 ([2]; final DMSO concentration 2%): 5.63
- IC50 ([2]; final DMSO concentration 2%): 2.37 µM

SMILES: O=C(OCc1cc(CCc2ccc(F)cc2)n[nH]1)c1cc(O)c(O)c(OC(=O)c2cc(O)c(O)c(OC(=O)c3cc(O)c(O)c(OC(=O)c4cc(O)c(O)c(OC(=O)c5cc(O)c(O)c(O)c5)c4)c3)c2)c1 [Compound 92, 5-((5-((5-((5-(((3-(4-fluorophenethyl)-1H-pyrazol-5-yl)methoxy)carbonyl)-2,3-dihydroxyphenoxy)carbonyl)-2,3-dihydroxyphenoxy)carbonyl)-2,3-dihydroxyphenoxy)carbonyl)-2,3-dihydroxyphenyl 3,4,5-trihydroxybenzoate]
- pIC50 [1]: 7.64
- pIC50 ([2]; final DMSO concentration 2%): 5.62
- IC50 ([2]; final DMSO concentration 2%): 2.42 µM
